Target: GDP-bound KRAS protein (aa 1-169), containing both G12C and C118A amino acid substitutions (Homo sapiens, UniProt P01116, C118A/G12C)
Test: Coupled Nucleotide Exchange Assay
Assay type: biochemical
Details: 5 min compound pre-incubation; SOS-mediated nucleotide exchange, AlphaScreen
Procedure: Following compound pre-incubation, purified SOS protein (aa 564-1049) and GTP (Roche 10106399001) were added to the assay wells and incubated for an additional 30 min. To determine the extent of inhibition of SOS-mediated nucleotide exchange, purified GST-tagged cRAF (aa 1-149), nickel chelate AlphaLISA acceptor beads (PerkinElmer AL108R), and AlphaScreen glutathione donor beads (PerkinElmer 6765302) were added to the assay wells and incubated for 10 minutes. The assay plates were then read on a PerkinElmer EnVision Multilabel Reader, using AlphaScreen® technology, and data were analyzed using a 4-parameter logistic model to calculate IC50 values.

Sequence of GDP-bound KRAS protein (aa 1-169), containing both G12C and C118A amino acid substitutions (P01116 1-169 isoform P01116-2 G12C/C118A): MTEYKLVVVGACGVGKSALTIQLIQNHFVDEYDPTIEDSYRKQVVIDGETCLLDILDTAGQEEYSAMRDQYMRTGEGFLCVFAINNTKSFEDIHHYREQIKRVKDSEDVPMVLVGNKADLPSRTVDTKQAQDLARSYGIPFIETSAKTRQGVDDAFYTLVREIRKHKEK

| SMILES | Coupled exchange IC50 (5 min; μM) [µM] |
| --- | --- |
| C=CC(=O)N1CCN(c2c(C#N)c(=O)n(-c3c(C)ccnc3C(C)C)c3nc(-c4ccccc4F)c(Cl)cc23)C[C@H]1C (single isomer, unassigned) [Example 6.6] | 0.92 |
| C=CC(=O)N1C[C@H](C)N(c2c(C#N)c(=O)n(-c3c(C)ccnc3C(C)C)c3nc(-c4ccccc4F)c(Cl)cc23)C[C@H]1C (single isomer, unassigned) [Example 7.4] | 17.6 |
| C=CC(=O)N1C[C@H](C)N(c2c(C#N)c(=O)n(-c3c(C)ccnc3C(C)C)c3nc(-c4ccccc4F)c(Cl)cc23)C[C@H]1C (single isomer, unassigned) [Example 7.5] | 2.27 |
| C=CC(=O)N1[C@H](C)CN(c2c(C#N)c(=O)n(-c3c(C)ccnc3C(C)C)c3nc(-c4ccccc4F)c(Cl)cc23)C[C@@H]1C (single isomer, unassigned) [Example 7.6] | 0.32 |
| C=CC(=O)N1CCN(c2c(C#N)c(=O)n(-c3c(N(C)C)ccnc3C(C)C)c3nc(-c4ccccc4F)c(Cl)cc23)CC1 (single isomer, unassigned) [Example 8.3, 4-(4-acryloylpiperazin-1-yl)-6-chloro-1-(4-(dimethylamino)-2-isopropylpyridin-3-yl)-7-(2-fluorophenyl)-2-oxo-1,2-dihydro-1,8-naphthyridine-3-carbonitrile] | 0.42 |
| C=CC(=O)N1CCN(c2c(C#N)c(=O)n(-c3c(N(C)C)ccnc3C(C)C)c3nc(-c4ccccc4F)c(Cl)cc23)CC1 (single isomer, unassigned) [Example 8.5, 4-(4-acryloylpiperazin-1-yl)-6-chloro-1-(4-(dimethylamino)-2-isopropylpyridin-3-yl)-7-(2-fluorophenyl)-2-oxo-1,2-dihydro-1,8-naphthyridine-3-carbonitrile] | 3.26 |
| C=CC(=O)N1CCN(c2c(C#N)c(=O)n(-c3c(C(C)C)ccnc3N(C)C)c3nc(-c4ccccc4F)c(Cl)cc23)CC1 (single isomer, unassigned) [Example 8.7, 4-(4-acryloylpiperazin-1-yl)-6-chloro-1-(2-(dimethylamino)-4-isopropylpyridin-3-yl)-7-(2-fluorophenyl)-2-oxo-1,2-dihydro-1,8-naphthyridine-3-carbonitrile] | 1.55 |
| C=CC(=O)N1CCN(c2c(C#N)c(=O)n(-c3c(C)ccnc3C(C)C)c3nc(-c4ccccc4C)c(Cl)cc23)CC1 (single isomer, unassigned) [Example 11, 4-(4-Acryloylpiperazin-1-yl)-6-chloro-1-(2-isopropyl-4-methylpyridin-3-yl)-2-oxo-7-(o-tolyl)-1,2-dihydro-1,8-naphthyridine-3-carbonitrile] | 0.71 |
| C=CC(=O)N1CCN(c2c(C#N)c(=O)n(-c3c(C)ccnc3C(C)C)c3nc(-c4ccccc4C(C)C)c(Cl)cc23)CC1 (single isomer, unassigned) [Example 11.2, 4-(4-acryloylpiperazin-1-yl)-6-chloro-1-(2-isopropyl-4-methylpyridin-3-yl)-7-(2-isopropylphenyl)-2-oxo-1,2-dihydro-1,8-naphthyridine-3-carbonitrile] | 1.96 |
| C=CC(=O)N1CCN(c2c(C#N)c(=O)n(-c3c(C(C)C)ncnc3C(C)C)c3nc(-c4ccccc4CN(C)C)c(Cl)cc23)CC1 [Example 1, 4-(4-Acryloylpiperazin-1-yl)-6-chloro-1-(4,6-diisopropylpyrimidin-5-yl)-7-(2-((dimethylamino)methyl)phenyl)-2-oxo-1,2-dihydro-1,8-naphthyridine-3-carbonitrile] | 4.13 |
| C=CC(=O)N1CCN(c2c(C#N)c(=O)n(-c3c(CN(C)C)ccnc3C(C)C)c3nc(-c4ccccc4F)c(Cl)cc23)CC1 [Example 2, 4-(4-Acryloylpiperazin-1-yl)-6-chloro-1-(4-((dimethylamino)methyl)-2-isopropylpyridin-3-yl)-7-(2-fluorophenyl)-2-oxo-1,2-dihydro-1,8-naphthyridine-3-carbonitrile] | 0.061 |
| C=CC(=O)N1CCN(c2c(C#N)c(=O)n(-c3c(CN(C)C)ccnc3C(C)C)c3nc(-c4ccccc4F)c(Cl)cc23)CC1 [Example 2.1, 4-(4-acryloylpiperazin-1-yl)-6-chloro-1-(4-((dimethylamino)methyl)-2-isopropylpyridin-3-yl)-7-(2-fluorophenyl)-2-oxo-1,2-dihydro-1,8-naphthyridine-3-carbonitrile] | 0.18 |
| C=CC(=O)N1CCN(c2c(C#N)c(=O)n(-c3c(CN(C)C)ccnc3C(C)C)c3nc(-c4ccccc4F)c(Cl)cc23)CC1 [Example 2.2, 4-(4-acryloylpiperazin-1-yl)-6-chloro-1-(4-((dimethylamino)methyl)-2-isopropylpyridin-3-yl)-7-(2-fluorophenyl)-2-oxo-1,2-dihydro-1,8-naphthyridine-3-carbonitrile] | 5.71 |
| C=CC(=O)N1CCN(c2c(C#N)c(=O)n(-c3c(C)ccnc3C(C)C)c3nc(-c4ccccc4F)c(Cl)cc23)C[C@@H]1C [Example 6.1, (S)-4-(4-acryloyl-3-methylpiperazin-1-yl)-6-chloro-7-(2-fluorophenyl)-1-(2-isopropyl-4-methylpyridin-3-yl)-2-oxo-1,2-dihydro-1,8-naphthyridine-3-carbonitrile] | 1.57 |
| C=CC(=O)N1CCN(c2c(C#N)c(=O)n(-c3c(C)ccnc3C(C)C)c3nc(-c4ccccc4F)c(Cl)cc23)CC1 [Example 6.4, 4-(4-acryloylpiperazin-1-yl)-6-chloro-7-(2-fluorophenyl)-1-(2-isopropyl-4-methylpyridin-3-yl)-2-oxo-1,2-dihydro-1,8-naphthyridine-3-carbonitrile] | 0.73 |
| C=CC(=O)N1CCN(c2c(C#N)c(=O)n(-c3c(C(C)C)ccnc3C(C)C)c3nc(Cl)c(F)cc23)CC1 [Example 9, 4-(4-Acryloylpiperazin-1-yl)-7-chloro-1-(2,4-diisopropylpyridin-3-yl)-6-fluoro-2-oxo-1,2-dihydro-1,8-naphthyridine-3-carbonitrile] | 82.1 |
| C=CC(=O)N1CCN(c2c(C#N)c(=O)n(-c3c(C(C)C)ncnc3C(C)C)c3nc(Cl)c(Cl)cc23)CC1 [Example 9.1, 4-(4-acryloylpiperazin-1-yl)-6,7-dichloro-1-(4,6-diisopropylpyrimidin-5-yl)-2-oxo-1,2-dihydro-1,8-naphthyridine-3-carbonitrile] | 25.1 |
| C=CC(=O)N1CCN(c2c(C#N)c(=O)n(-c3c(C)ccnc3C(C)C)c3nc(Cl)c(Cl)cc23)CC1 [Example 9.2, 4-(4-acryloylpiperazin-1-yl)-6,7-dichloro-1-(2-isopropyl-4-methylpyridin-3-yl)-2-oxo-1,2-dihydro-1,8-naphthyridine-3-carbonitrile] | 36 |
| C=CC(=O)N1CCN(c2c(C#N)c(=O)n(-c3c(C(C)C)ccnc3C(C)C)c3nc(-c4ccccc4C)c(F)cc23)CC1 [Example 10, 4-(4-Acryloylpiperazin-1-yl)-1-(2,4-diisopropylpyridin-3-yl)-6-fluoro-2-oxo-7-(o-tolyl)-1,2-dihydro-1,8-naphthyridine-3-carbonitrile] | 0.94 |
| C=CC(=O)N1CCN(c2c(C#N)c(=O)n(-c3c(C(C)C)ccnc3C(C)C)c3nc(-c4ccccc4F)c(F)cc23)CC1 [Example 10.1, 4-(4-acryloylpiperazin-1-yl)-1-(2,4-diisopropylpyridin-3-yl)-6-fluoro-7-(2-fluorophenyl)-2-oxo-1,2-dihydro-1,8-naphthyridine-3-carbonitrile] | 0.65 |
| C=CC(=O)N1CCN(c2c(C#N)c(=O)n(-c3c(C(C)C)ccnc3C(C)C)c3nc(-c4ccccc4C)c(F)cc23)CC1 [Example 10.2, 4-(4-acryloylpiperazin-1-yl)-1-(2,4-diisopropylpyridin-3-yl)-6-fluoro-2-oxo-7-(o-tolyl)-1,2-dihydro-1,8-naphthyridine-3-carbonitrile] | 0.45 |
| C=CC(=O)N1CCN(c2c(C#N)c(=O)n(-c3c(C(C)C)ccnc3C(C)C)c3nc(-c4ccccc4C)c(F)cc23)CC1 [Example 10.3, 4-(4-acryloylpiperazin-1-yl)-1-(2,4-diisopropylpyridin-3-yl)-6-fluoro-2-oxo-7-(o-tolyl)-1,2-dihydro-1,8-naphthyridine-3-carbonitrile] | 0.83 |
| C=CC(=O)N1CCN(c2c(C#N)c(=O)n(-c3c(C(C)C)ccnc3C(C)C)c3nc(-c4ccccc4F)c(F)cc23)CC1 [Example 10.4, 4-(4-acryloylpiperazin-1-yl)-1-(2,4-diisopropylpyridin-3-yl)-6-fluoro-7-(2-fluorophenyl)-2-oxo-1,2-dihydro-1,8-naphthyridine-3-carbonitrile] | 0.44 |
| C=CC(=O)N1CCN(c2c(C#N)c(=O)n(-c3c(C(C)C)ccnc3C(C)C)c3nc(-c4ccccc4F)c(F)cc23)CC1 [Example 10.5, 4-(4-acryloylpiperazin-1-yl)-1-(2,4-diisopropylpyridin-3-yl)-6-fluoro-7-(2-fluorophenyl)-2-oxo-1,2-dihydro-1,8-naphthyridine-3-carbonitrile] | 0.36 |

Source: patent publication US12583854B2, “KRAS G12C inhibitors and methods of using the same” (Amgen Inc., priority 2018, dated 2026)
